{"source": "patent US20220412958A1", "about": "“METHOD FOR EVALUATING SAFETY OF SUBSTANCE IN VITRO USING HUMAN IMMORTALIZED MYELOID CELLS” (MiCAN Technologies Inc., priority 2019, published 2022)", "key": {"iPS-ML2 [1]": {"system": "iPS-ML2", "assay": "Detection test of skin sensitizer and/or pyrogen: IL-6/IL-8 production by immortalized monocytes (ELISA)", "format": "cell-based, human", "conditions": "iPS-ML2, both 6 hr and 24 hr after culturing; negative control = culture medium alone", "excerpt": "(§1) 1. […] 2. […] This operation was repeated once more. 3. […] 4. […] 5. […] 6. […] 7. […] 8. […] 9. […] 10."}, "iPS-ML2 [2]": {"system": "iPS-ML2", "assay": "Evaluation test of skin sensitizing property and/or pyrogenic property: IL-6/IL-8 production by immortalized monocytes (ELISA)", "format": "cell-based, human", "conditions": "iPS-ML2, 6 hr after addition, culture supernatant ELISA; negative control = medium alone; test substance up to 200 μg/mL", "excerpt": "as §1"}, "mouse": {"system": "mouse", "conditions": "in vivo; cited from earlier work"}}, "data": [{"compound": "Staphylococcus aureus Cowan 1 [SAC]", "values": [{"measurement": "production amount of IL-6 in the culture supernatant with respect to the negative control", "setting": "iPS-ML2 [1]", "result": "increased as the dilution rate became smaller"}, {"measurement": "production amount of IL-8 in the culture supernatant with respect to the negative control", "setting": "iPS-ML2 [1]", "result": "increased as the dilution rate became smaller"}]}, {"compound": "CC(O)C(=O)O", "note": "(centres unmarked) [N7, Lactic acid]", "values": [{"measurement": "production of IL-6 compared with the negative control", "setting": "iPS-ML2 [2]", "result": "did not show production"}, {"measurement": "production of IL-8 compared with the negative control", "setting": "iPS-ML2 [2]", "result": "did not show production"}]}, {"compound": "Nc1ccc(N)cc1", "note": "[P2, 4-Phenylenediamine]", "values": [{"measurement": "skin sensitizing property in LLNA", "setting": "mouse", "result": "have skin sensitizing property"}]}]}
